Measured values published in US8673578B2, “Methods of identifying antagonists of the hTAS2R46 bitter taste receptor” (Deutsches Institut für Ernahrungsforschung Potsdam-Rehbrücke, priority 2009, dated 2014).

Experiments:
Type in all cases: cell-based
[1] = target: T1, hTAS2R1 (Homo sapiens, UniProt Q9NYW7); test: calcium imaging (FLIPR), activation of hTAS2R-transfected HEK293T-Gα16gust44 cells; details: 100 μM test substance, bath application
T1 construct: expressed in transfected cells; host or cells: HEK293T cells stably expressing chimeric Gα16gust44, transient transfection
T1 sequence (Q9NYW7 1-299): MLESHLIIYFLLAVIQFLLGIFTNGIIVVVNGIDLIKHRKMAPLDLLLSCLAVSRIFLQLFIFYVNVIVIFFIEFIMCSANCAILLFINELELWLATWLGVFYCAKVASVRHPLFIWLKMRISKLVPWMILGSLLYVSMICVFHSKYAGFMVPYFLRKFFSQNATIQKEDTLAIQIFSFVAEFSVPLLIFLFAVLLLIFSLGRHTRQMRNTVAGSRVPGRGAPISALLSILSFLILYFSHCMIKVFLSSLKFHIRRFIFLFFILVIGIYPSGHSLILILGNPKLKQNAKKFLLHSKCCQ
From the text: (§1) Human TAS2R cDNAs were cloned into pcDNA5/FRT (Invitrogen, San Diego, Calif.). For adequate plasma membrane targeting, receptor cDNA was fused to the aminoterminal sequence of the rat somatostatin type 3 receptor at the aminoterminus of the recombinant protein (Bufe, B., T. Hofmann, et al. (2002) Nat Genet. 32(3): 397-401). For immunological detection, the Herpes simplex Glycoprotein D epitope was supplemented at the carboxyterminus of the recombinant protein (Bufe et al., supra). Receptor constructs were transiently transfected into HEK293T cells stably expressing the chimeric G protein subunit Gα16gust44 (Ueda, T., S. Ugawa, et al. (2003) J Neurosci 23(19): 7376-80) using Lipofectamine 2000 (Invitrogen, San Diego, Calif.) in 96-well plates.
(§2) Calcium Imaging experiments were performed 24 h after transfection using a Fluorometric Imaging Plate Reader (FLIPR, Molecular Devices, Munich, Germany) as previously described (Bufe et al., supra). Taste active compounds were ordered from Sigma (Sigma-Aldrich, Taufkirchen, Germany). Absinthin, 3β hydroxy dihydro costunolide and 3β hydroxy pelenolide were kindly provided by Giovanni Appendino (Novara, Italy). Test substances were directly dissolved in C1 buffer (130 mM NaCl, 10 mM Na-Hepes, 10 mM Glucose, 5 mM KCl, 2 mM CaCl2, pH 7.4) or in DMSO, respectively. DMSO stocks were further diluted in C1 buffer not exceeding a final DMSO concentration of 1% on the cells. For the investigation of antagonistic effects, test substances were premixed. Agonists were applied at concentrations corresponding to EC90, except where indicated otherwise (Table 2). Data were collected from 3 independent experiments performed in quadruplicates and processed with SigmaPlot (SPSS, Chicago, Ill.). Fluorescence signals after application of test substances were corrected for and normalized to background fluorescence (ΔF/F═(F−F0)/F0), and baseline noise was subtracted. Calculation of dose-response curves was done by nonlinear regression using the function f(y)=((a−d)/(1+(x/EC50)^nH)+d).
In a first series of experiments we tested the two sesquiterpene lactones 3β hydroxy dihydro costunolide (formula (I) in FIG. 1) and 3β hydroxy pelenolide (formula (II) in FIG. 1) for their ability to activate hTAS2 receptor-expressing HEK293T cells.
Signal amplitudes were comparatively small (FIG. 2C).

[2] = target: T2, hTAS2R47 (Homo sapiens, UniProt P59541); test: calcium imaging (FLIPR), effect on agonist-dependent hTAS2R activation; details: 100 μM test substance; agonist brucine 100 μM (EC90); agonist alone = 100%
T2 construct: expressed in transfected cells; host or cells: HEK293T cells stably expressing chimeric Gα16gust44, transient transfection
T2 sequence (P59541 1-319): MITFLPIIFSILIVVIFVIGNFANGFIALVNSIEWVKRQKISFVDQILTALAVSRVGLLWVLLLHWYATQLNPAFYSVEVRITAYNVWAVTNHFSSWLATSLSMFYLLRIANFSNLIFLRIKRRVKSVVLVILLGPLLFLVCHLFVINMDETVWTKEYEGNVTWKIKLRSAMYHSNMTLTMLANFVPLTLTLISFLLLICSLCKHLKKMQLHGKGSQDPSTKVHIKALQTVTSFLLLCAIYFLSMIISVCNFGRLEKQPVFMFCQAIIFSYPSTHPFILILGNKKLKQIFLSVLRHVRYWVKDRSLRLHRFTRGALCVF
From the text: as §1, §2
(§3) To test 3β hydroxy dihydro costunolide and 3β hydroxy pelenolide for antagonistic or enhancing effects on hTAS2R activation, transfected cells were stimulated with cognate agonist bitter substances at EC90 concentrations (Table 2) without 3β hydroxy dihydro costunolide and 3β hydroxy pelenolide. The cellular responses after application of the agonist alone were set to 100%, responses obtained after coapplication of agonists and 100 μM 3β hydroxy dihydro costunolide or 100 μM 3β hydroxy pelenolide are shown relative to this value (FIG. 4).

[3] = target: T3, hTAS2R43 (Homo sapiens, UniProt P59537, H212R/W35S); test: as above; details: 100 μM test substance; agonist aristolochic acids 0.3 μM (EC90); agonist alone = 100%
T3 construct: expressed in transfected cells; host or cells: HEK293T cells stably expressing chimeric Gα16gust44, transient transfection
T3 sequence (P59537 1-309 W35S/H212R): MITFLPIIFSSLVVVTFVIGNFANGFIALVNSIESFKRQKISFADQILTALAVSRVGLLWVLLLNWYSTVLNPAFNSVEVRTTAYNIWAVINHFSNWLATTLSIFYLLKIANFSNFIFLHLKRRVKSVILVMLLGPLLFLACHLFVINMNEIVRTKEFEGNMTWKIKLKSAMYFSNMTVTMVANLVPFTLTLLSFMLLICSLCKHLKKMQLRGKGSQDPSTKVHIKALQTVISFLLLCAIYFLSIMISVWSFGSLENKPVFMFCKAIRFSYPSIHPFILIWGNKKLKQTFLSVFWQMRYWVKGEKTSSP
From the text: as §1, §2, §3

[4] = target: T4, hTAS2R46 (Homo sapiens, UniProt P59540); test: calcium imaging (FLIPR), activation of hTAS2R-transfected HEK293T-Gα16gust44 cells; details: 100 μM test substance, bath application
T4 construct: expressed in transfected cells; host or cells: HEK293T cells stably expressing chimeric Gα16gust44, transient transfection
T4 sequence (P59540 1-309): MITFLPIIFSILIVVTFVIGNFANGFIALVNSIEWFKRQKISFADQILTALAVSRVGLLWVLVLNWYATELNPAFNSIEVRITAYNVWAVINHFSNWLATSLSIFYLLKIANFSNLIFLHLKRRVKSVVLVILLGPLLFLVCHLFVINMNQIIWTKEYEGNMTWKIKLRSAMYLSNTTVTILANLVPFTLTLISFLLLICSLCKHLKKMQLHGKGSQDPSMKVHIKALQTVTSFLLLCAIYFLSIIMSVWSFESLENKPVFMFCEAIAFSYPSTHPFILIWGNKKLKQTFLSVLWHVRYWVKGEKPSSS
From the text: as §1
as §2, with “f(y)=((a−d)/(1+(x/EC50)^nH)+d). […]” for “f(y)=((a−d)/(1+(x/EC50)^nH)+d).”
Finally, the impact of chemical modifications on the antagonistic properties of 3β hydroxy dihydro costunolide on hTAS2R46-expressing cells was studied. Derivatives of 3β hydroxy dihydro costunolide with site-directed modifications at C3 and C11 were generated (FIG. 7A) These derivatives were tested for activation or inhibition of hTAS2R46-expressing cells in the absence or presence of the agonist strychnine (3 μM) and half-maximum effective concentrations (EC50) or half-maximal inhibitory concentrations were calculated (FIG. 7B).

Row | SMILES | calcium response of hTAS2R1-transfected cells [1] | agonist-dependent response of hTAS2R47-expressing cells on coapplication [2] | agonist-dependent response of hTAS2R43-expressing cells on coapplication [3] | calcium response of hTAS2R46-transfected cells [4]
1 | C/C1=C\C[C@H](O)/C(C)=C/[C@H]2OC(=O)[C@@H](C)C2CC1 (stereo partly drawn) [3β hydroxy dihydro costunolide] | responded | complete block | only moderately reduced | –
2 | C/C1=C\C[C@H](O)[C@@H](C)C[C@H]2OC(=O)[C@@H](C)[C@@H]2CC1 [3β hydroxy pelenolide] | – | completely inhibited | completely inhibited | displayed calcium signals
